# Test results from patent US20200017496A1 (priority 2017, published 2020).
# Like-named read-outs stand apart in the source and are kept apart here.
# How the values were obtained:
# Assay type in all cases: cell-based
# [1] = test system: Escherichia coli (ECO) isolates; assay: MIC of compounds alone and combined with antibacterials, broth microdilution (CLSI); settings: Escherichia coli, ATB alone
# How it was run: (§1)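 Log-phase isolates at final 5·10^5 CFU/mL in cation-adjusted Mueller-Hinton broth, incubated 16-20 h at 35° C in ambient air. MIC read visually as lowest concentration preventing growth, for compound alone and for antibacterial at each compound concentration.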
# [2] = test system: Enterobacter aerogenes (EAE) isolates; assay: as above; settings: for MIC: Klebsiella aerogenes
# How it was run: as §1
# [3] = test system: Proteus mirabilis (PMI) isolates; assay: microbe, parasite or virus in culture; settings: for MIC: Proteus mirabilis, ATB alone, read-out: MIC
# How it was run: as §1
smiles,measurement,setting,value
"CC(C)(O/N=C(\C(=O)N[C@@H]1C(=O)N2C(C(=O)[O-])=C(C[n+]3ccccc3)CS[C@H]12)c1csc(N)n1)C(=O)O [CAZ, Ceftazidime]",MIC,"[1]; strain ECO UFR185 (OXA-48), read-out: MIC",> 256 µg/mL
same,MIC,"[1]; strain ECO UFR186 (TEM-1, CTX-M-14, OXA-48)",8 µg/mL
same,MIC,"[1]; strain ECO UFR187 (CTX-M-15, OXA-48)",8 µg/mL
same,MIC,"[1]; strain ECO UFR191 (TEM-1, CTX-M-24, OXA-48)",4 µg/mL
same,MIC,[1]; strain ECO UFR210 (SHV-12),32 µg/mL
same,MIC ATB in combination,"[2]; EAE 49469, AF1 @ 4 μg/mL",8 µg/mL
same,MIC ATB in combination,"[2]; EAE 49469, AF1 @ 8 μg/mL",2 µg/mL
same,MIC ATB in combination,"[2]; EAE 200261, AF1 @ 4 μg/mL",2 µg/mL
same,MIC ATB in combination,"[2]; EAE 200261, AF1 @ 8 μg/mL",0.5 µg/mL
same,MIC ATB in combination,"[2]; EAE UFR199, AF1 @ 4 μg/mL",1 µg/mL
same,MIC ATB in combination,"[2]; EAE UFR199, AF1 @ 8 μg/mL",0.5 µg/mL
same,MIC ATB in combination,"[2]; EAE UFR201, AF1 @ 4 μg/mL",0.5 µg/mL
same,MIC ATB in combination,"[2]; EAE UFR201, AF1 @ 8 μg/mL",<=0.25 μg/mL
same,MIC ATB in combination,"[2]; EAE UFR202, AF1 @ 4 μg/mL",2 µg/mL
same,MIC ATB in combination,"[2]; EAE UFR202, AF1 @ 8 μg/mL",1 µg/mL
same,MIC ATB in combination,"[2]; EAE UFR213, AF1 @ 4 μg/mL",0.5 µg/mL
same,MIC ATB in combination,"[2]; EAE UFR213, AF1 @ 8 μg/mL",0.5 µg/mL
same,MIC,[2],> 256 µg/mL
same,MIC,"[2]; strain EAE UFR202 (TEM-24), ATB alone, read-out: MIC",> 256 µg/mL
same,MIC,"[2]; strain EAE UFR213 (TEM-24), ATB alone, read-out: MIC",> 256 µg/mL
same,MIC ATB in combination,"[3]; PMI UFR82, AF1 @ 4 μg/mL",<=0.25 μg/mL
same,MIC ATB in combination,"[3]; PMI UFR82, AF1 @ 8 μg/mL",<=0.25 μg/mL
same,MIC ATB in combination,"[3]; PMI UFR120, AF1 @ 4 μg/mL",<=0.25 μg/mL
same,MIC ATB in combination,"[3]; PMI UFR120, AF1 @ 8 μg/mL",<=0.25 μg/mL
same,MIC ATB in combination,"[3]; PMI UFR121, AF1 @ 4 μg/mL",<=0.25 μg/mL
same,MIC ATB in combination,"[3]; PMI UFR121, AF1 @ 8 μg/mL",<=0.25 μg/mL
same,MIC ATB in combination,"[3]; PMI UFR122, AF1 @ 4 μg/mL",<=0.25 μg/mL
same,MIC ATB in combination,"[3]; PMI UFR122, AF1 @ 8 μg/mL",<=0.25 μg/mL
same,MIC ATB in combination,"[3]; PMI UFR123, AF1 @ 4 μg/mL",<=0.25 μg/mL
same,MIC ATB in combination,"[3]; PMI UFR123, AF1 @ 8 μg/mL",<=0.25 μg/mL
same,MIC ATB in combination,"[3]; PMI UFR124, AF1 @ 4 μg/mL",<=0.25 μg/mL
same,MIC ATB in combination,"[3]; PMI UFR124, AF1 @ 8 μg/mL",<=0.25 μg/mL
same,MIC ATB in combination,"[3]; PMI UFR125, AF1 @ 4 μg/mL",<=0.25 μg/mL
same,MIC ATB in combination,"[3]; PMI UFR125, AF1 @ 8 μg/mL",<=0.25 μg/mL
same,MIC ATB in combination,"[3]; PMI UFR126, AF1 @ 4 μg/mL",<=0.25 μg/mL
same,MIC ATB in combination,"[3]; PMI UFR126, AF1 @ 8 μg/mL",<=0.25 μg/mL
same,MIC ATB in combination,"[3]; PMI UFR127, AF1 @ 4 μg/mL",<=0.25 μg/mL
same,MIC ATB in combination,"[3]; PMI UFR127, AF1 @ 8 μg/mL",<=0.25 μg/mL
same,MIC ATB in combination,"[3]; PMI UFR129, AF1 @ 4 μg/mL",<=0.25 μg/mL
same,MIC ATB in combination,"[3]; PMI UFR129, AF1 @ 8 μg/mL",<=0.25 μg/mL
same,MIC ATB in combination,"[3]; PMI UFR130, AF1 @ 4 μg/mL",<=0.25 μg/mL
same,MIC ATB in combination,"[3]; PMI UFR130, AF1 @ 8 μg/mL",<=0.25 μg/mL
same,MIC ATB in combination,"[3]; PMI UFR237, AF1 @ 4 μg/mL",0.5 µg/mL
same,MIC ATB in combination,"[3]; PMI UFR237, AF1 @ 8 μg/mL",<=0.25 μg/mL
same,MIC,[3]; strain PMI UFR82 (CMY-2),4 µg/mL
same,MIC,"[3]; strain PMI UFR120 (TEM-1, SHV-11, CTX-M-14)",≤ 0.25 µg/mL
same,MIC,"[3]; strain PMI UFR121 (TEM-1, TEM-52)",16 µg/mL
same,MIC,"[3]; strain PMI UFR122 (TEM-1, CTX-M-15)",1 µg/mL
same,MIC,[3]; strain PMI UFR123 (CTX-M-1),2 µg/mL
same,MIC,[3]; strain PMI UFR124 (CTX-M-2),2 µg/mL
same,MIC,[3]; strain PMI UFR125 (CTX-M-71),2 µg/mL
same,MIC,[3]; strain PMI UFR130 (CMY-2),4 µg/mL
